The source of these data is US5252749A, “Ethers of thienocyclopentanone oximes, their preparation and pharmaceutical compositions containing them” (Elf Sanofi, priority 1991, dated 1993).

SMILES strings stand for the structures.

One test deals with 5HT3 receptors. The conditions noted are these: rats, Bezold-Jarisch reflex; compounds studied in J. Pharm. Pharmacol. 40, 301-302 (1988); cited from earlier work.
For the next test, the target named is T1, 5HT1D receptors (Bos taurus, UniProt F1MGM3).
T1 construct: membrane preparations of bovine caudate nuclei; from tissue; host or cells: bovine caudate nuclei, membrane preparation
T1 sequence (F1MGM3 1-403): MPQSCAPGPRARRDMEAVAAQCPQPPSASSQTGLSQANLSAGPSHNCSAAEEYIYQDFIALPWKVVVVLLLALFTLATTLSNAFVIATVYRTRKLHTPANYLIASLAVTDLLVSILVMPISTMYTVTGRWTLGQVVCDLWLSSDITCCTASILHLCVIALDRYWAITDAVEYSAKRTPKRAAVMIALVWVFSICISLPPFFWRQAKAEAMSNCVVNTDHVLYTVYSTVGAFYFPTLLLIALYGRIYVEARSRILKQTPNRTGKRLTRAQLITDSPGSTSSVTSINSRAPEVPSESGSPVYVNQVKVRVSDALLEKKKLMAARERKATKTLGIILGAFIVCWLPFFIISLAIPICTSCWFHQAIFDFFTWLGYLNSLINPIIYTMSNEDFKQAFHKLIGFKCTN
Put plainly: Displacement of tritiated serotonin from 5HT1D receptors on membrane preparations of bovine caudate nuclei. The conditions noted are these: bovine caudate nuclei membranes, in vitro, read-out: concentration which inhibits 50% of the binding of the tritiated compound (IC50).

The next test relates to 5HT1D receptor. The settings on record: Headache 29, 420-422, July 1989; cited from earlier work.
The conditions of test [1]: in man; cited from earlier work.
The next test relates to 5HT1A receptor. The settings on record: Headache 29, 420-422, July 1989; cited from earlier work.

On to `CN1[C@@H]2CC[C@H]1CC(OC(=O)c1c[nH]c3ccccc13)C2` (stereo partly shown) [ICS 205-930], for which the “dose which inhibits 50% of the serotonin activity (ID50)” value with 5HT3 receptors is reported as “approximately 1 μg/kg”.

For `CCN(CC)CCNC(=O)c1cc(Cl)c(N)cc1OC` [metoclopramide], the “dose which inhibits 50% of the serotonin activity (ID50)” value in the test on 5HT3 receptors is approximately 0.4 mg/kg.

Regarding `CNS(=O)(=O)Cc1ccc2[nH]cc(CCN(C)C)c2c1` [sumatriptan], on 5HT1D receptors, the IC50 is approximately 100 nM. Further, in the test with 5HT1D receptor, the “agonist activity at the 5HT1D receptor” value is reported as “powerful agonist of the 5HT1D receptor”. Besides, the antimigraine activity entry in test [1] is listed as “marked antimigraine activity in man”. Besides, the “agonist activity at the 5HT1A receptor” value with 5HT1A receptor is recorded as “weak agonist of the 5HT1A receptor”.

Regarding `COc1cc(N)c(Cl)cc1C(=O)NC1CN2CCC1CC2` (stereo not shown) [zacopride], in the test with 5HT3 receptors, the “dose which inhibits 50% of the serotonin activity (ID50)” value was approximately 0.00025 mg/kg.
